Source: US20250041263A1, “USE OF CATECHIN FOR THE TREATMENT OF FGFR-RELATED BONE REPAIR AND BONE FORMATION IMPAIRMENT” (INSTITUT NATIONAL DE LA SANTÉ ET DE LA RECHERCHE MÉDICALE, priority 2021, published 2025)

Test system: HCH mice (Fgfr3^N534K/+)
Experiment: Non-stabilized mandibular fracture repair in HCH mouse model (microCT, repair grade)
Format: in vivo
Conditions: for BV/TV, treated vs untreated HCH mice: p<0.05
Protocol: I-Study of mandibular bone repair in the mouse model of hypochondroplasia (Fgfr3^[…]/+) Mandibular bone repair was studied in the HCH mouse model (Fgfr3^[…]/+). The experiments were performed in adult animals at 6 weeks of age, and mice were euthanized at 4 key points: during bone repair (10, 14, 21 days post fracture), and at the end of the normal bone healing process i.e. at 28 days post fracture. Vertical mandibular fractures were performed in the ascending ramus region in Fgfr3^[…]/+ and Fgfr3^+/+ mice. This is a non-stabilized mandibular fracture protocol allowing to analyze the endochondral bone repair process. Four batches (n=100) of Fgfr3^[…]/+ and Fgfr3^+/+ mandible fractures corresponding to different key stages of repair were studied (day 10, day 14, day 21, day 28). Using collagen type II (proliferative cartilage), type X (hypertrophic cartilage) and type I (bone) immunolabelling, we observed that the endochondral process is disturbed, we noted a delayed cartilage resorption, a reduction in the size of hypertrophic chondrocytes area and a defect in bone formation within the repair callus in Fgfr3^[…]/+ compared to Fgfr3^+/+. […] We observed the presence of pseudarthrosis (fibrosis in the callus) in Fgfr3^[…]/+ mice whereas we observed 100% of bone in Fgfr3^+/+ callus. Considering the quality of the newly formed bone at day 28, we defined four grades of repair and classified the mice according to their repair grade (from 1 to 4). The defective repair is significant in Fgfr3^[…]/+ compared to Fgfr3^+/+ (Data not shown). HCH mice (Fgfr3^[…]/+) were treated with (-)-epicatechin (subcutaneous injection at 0.3 mg/kg, 3 times per week) from day 0 (facture of the mandible) to day 14 or day 28. The bone repair analyses were evaluated by microCT scans at day 14 (FIG. 1A) and day 28 (FIG. 1B) post fracture.

[1] = day 28 grade repair, treated HCH mice
[2] = microCT, day 14 post fracture, FIG. 1A
[3] = microCT, day 28 post fracture, FIG. 1B
[4] = summary statement, time not stated

## Oc1cc(O)c2c(c1)O[C@H](c1ccc(O)c(O)c1)[C@H](O)C2 [(−)-epicatechin, (2R,3R)-2-(3,4-dihydroxyphenyl)-3,4-dihydro-2H-chromene-3,5,7-triol]
[1]
  Complete bone healing (grade 1), mice with grade / treated mice: 1/9
  Restoration of bone continuity, but presence of mild bone defects (grade 2), mice with grade / treated mice: 6/9
  presence of a bone callus, but with partial bone discontinuity (grade 3), mice with grade / treated mice: 2/9
Day 28 post fracture
  pseudarthrosis in treated HCH mice: did not observe pseudarthrosis
[2]
  BV/TV of treated Fgfr3^N534K/+ mandibles (in words): increased
  volume of the callus, treated vs untreated Fgfr3^N534K/+ (in words): unchanged
microCT, day 14 post fracture, subcutaneous 0.3 mg/kg, 3 times per week from day 0
  BV/TV, treated vs untreated HCH mice: +19%
[3]
  BV/TV of treated Fgfr3^N534K/+ mandibles (in words): increased
  volume of the callus, treated vs untreated Fgfr3^N534K/+ (in words): decreased
microCT, day 28 post fracture, subcutaneous 0.3 mg/kg, 3 times per week from day 0, p<0.01
  volume of the callus, treated vs untreated HCH mice: −39.8%
microCT, day 28 post fracture, subcutaneous 0.3 mg/kg, 3 times per week from day 0
  BV/TV, treated vs untreated HCH mice: +6.3%
[4]
  mandible bone formation and repair / defective bone reparation of the callus (overall, in words): improves

## catechin
[4]
  bone volume/total volume (overall, in words): increases
  mandible bone formation and repair / defective bone reparation of the callus (overall, in words): partially restores
  pseudarthrosis (overall, in words): without pseudarthrosis
